Our source for the IC50 and melting point values is US7750016B2, “Hydroxyalkyl substituted pyrido-7-pyrimidin-7-ones” (Roche Palo Alto LLC, priority 2003, dated 2010).

Molecules are shown by their SMILES. Structures can show the parent of a compound that is named as a salt.

The first data set has as its system LPS-induced IL-1β production in undiluted human whole blood. The data set is described as follows: human whole blood (HWB) in vitro assay, IL-1β ELISA. Type of data set: cell-based. The conditions noted are these: 0.5 μg/mL LPS, 18 hours, 30 min pre-incubation.
Protocol: LPS (lipopolysaccharide) treatment of human whole blood induces IL-1β (Interleukin-1β) production that can be measured by an IL-1β specific ELISA. Human whole blood was pre-incubated with the indicated concentrations of a compound of the present invention in 0.5% DMSO (final concentration) for 30 min at 37° C. Samples were stimulated with 0.5 μg/mL of lipopolysaccharide (LPS, from Sigma) (final concentration) for 18 hours to induce the synthesis and secretion of IL-1β which was measured using an IL-1β ELISA.
A stock solution of 6 mM in DMSO (from Sigma) was prepared by dissolving the compound in DMSO in 449 μL of DMSO. From the 6 mM stock solution, six subsequent half-log serial dilutions in DMSO were performed to give the following concentrations: 1.9 mM, 600, 190, 60, 19, and 6 μM. […] 216 μL DMSO was placed in each of tubes 2-7.
Reconstitution of LPS: in the 10 mg. vial of LPS, 10 mL 1× Phosphate-Buffered Saline (i.e., 1×PBS, from Gibco-BRL) was added, mixed well and transferred to a 50 mL tube. Another 10 mL was added to the LPS vial, followed by rinsing, and this rinse was added to the 50 mL tube and mixed will. The solution was filtered and sterilized, and aliquotted in desired amounts (100 μL aliquot was sufficient for 4 plates). This yielded a 0.5 mg/mL stock which was diluted 1/100 for use in protocol. Just prior to use, the LPS stock was diluted 1/100 (100 μL in 10 mL of RPMI) […]
In turn, `C[C@@H](O)Cn1c(=O)c(Oc2ccc(F)cc2F)cc2cnc(NC3CCOCC3)nc21` [Compound 20, 6-(2,4-Difluoro-phenoxy)-8-((R)-2-hydroxy-propyl)-2-(tetrahydro-pyran-4-ylamino)-8H-pyrido[2,3-d]pyrimidin-7-one] gave an IC50 of 1 nM.

Tested on in a further data set: not given
Assay: not given
Details: not given
Consider `C[C@H](O)Cn1c(=O)c(Oc2ccc(F)cc2F)cc2cnc(N[C@@H](C)CO)nc21` (as salt: hydrochloride) [Compound 16, 6-(2,4-Difluoro-phenoxy)-2-((S)-2-hydroxy-1-methyl-ethylamino)-8-((S)-2-hydroxy-propyl)-8H-pyrido[2,3-d]pyrimidin-7-one], for which the melting point lay in the range of 175.1 to 179.1 °C.
On the same count and under the same terms, next, `C[C@H](O)Cn1c(=O)c(Oc2ccc(F)cc2F)cc2cnc(N[C@H](C)CO)nc21` (as salt: hydrochloride) [Compound 17, 6-(2,4-Difluoro-phenoxy)-2-((R)-2-hydroxy-1-methyl-ethylamino)-8-((S)-2-hydroxy-propyl)-8H-pyrido[2,3-d]pyrimidin-7-one]: 174.9 to 178.1 °C; `C[C@@H](O)Cn1c(=O)c(Oc2ccc(F)cc2F)cc2cnc(NC(C)(C)CO)nc21` (as salt: hydrochloride) [Compound 31, 6-(2,4-Difluoro-phenoxy)-2-(2-hydroxy-1,1-dimethyl-ethylamino)-8-((R)-2-hydroxy-propyl)-8H-pyrido[2,3-d]pyrimidin-7-one]: 182 to 183.9 °C; `C[C@H](O)Cn1c(=O)c(Oc2ccc(F)cc2F)cc2cnc(NC(C)(C)CO)nc21` (as salt: hydrochloride) [Compound 36, 6-(2,4-Difluoro-phenoxy)-2-(2-hydroxy-1,1-dimethyl-ethylamino)-8-((S)-2-hydroxy-propyl)-8H-pyrido[2,3-d]pyrimidin-7-one]: 187.4 to 189.9 °C.
The same measure, in the same setting: next, `C[C@@H](O)Cn1c(=O)c(Oc2ccc(F)cc2F)cc2cnc(N[C@@H](C)CO)nc21` (as salt: hydrochloride) [Compound 41, 6-(2,4-Difluoro-phenoxy)-2-((S)-2-hydroxy-1-methyl-ethylamino)-8-((R)-2-hydroxy-propyl)-8H-pyrido[2,3-d]pyrimidin-7-one]: 186 to 189.1 °C; `C[C@H](CO)Nc1ncc2cc(Oc3ccc(F)cc3F)c(=O)n(C[C@@H](C)O)c2n1` (as salt: hydrochloride) [Compound 42, 6-(2,4-Difluoro-phenoxy)-2-((R)-2-hydroxy-1-methyl-ethylamino)-8-((R)-2-hydroxy-propyl)-8H-pyrido[2,3-d]pyrimidin-7-one]: 181.5 to 184.4 °C; `CC(=O)Cn1c(=O)c(Oc2ccc(F)cc2F)cc2cnc(N[C@@H](C)CO)nc21` (as salt: hydrochloride) [Compound 45, 6-(2,4-Difluoro-phenoxy)-2-((S)-2-hydroxy-1-methyl-ethylamino)-8-(2-oxo-propyl)-8H-pyrido[2,3-d]pyrimidin-7-one]: 207.9 to 214.6 °C.
On the same count and under the same terms, next, `CC(=O)Cn1c(=O)c(Oc2ccc(F)cc2F)cc2cnc(N[C@H](C)CO)nc21` (as salt: hydrochloride) [Compound 46, 6-(2,4-Difluoro-phenoxy)-2-((R)-2-hydroxy-1-methyl-ethylamino)-8-(2-oxo-propyl)-8H-pyrido[2,3-d]pyrimidin-7-one]: 207.8 to 216.4 °C.
